Experimental data reported in patent publication US20190038714A1, “ANTI-INFLAMMATORY COMPOSITION COMPRISING CLAVASPIRIN PEPTIDE ANALOGUE AS EFFECTIVE INGREDIENT” (INDUSTRY-ACADEMIC COOPERATION FOUNDATION, CHOSUN UNIVERSITY, priority 2015, published 2019).
Converted amounts (≈) assume the structure as drawn. Where two headings read alike, the source gives them in different places.

Legend:
S. aureus MRSA 3-359 [1] = assay: microbe, parasite or virus in culture; conditions: Staphylococcus aureus, 24 h
S. aureus MRSA 3518 [2] = assay: microbe, parasite or virus in culture; conditions: Staphylococcus aureus, 24 h
S. aureus [3] = assay: microbe, parasite or virus in culture; conditions: Staphylococcus aureus, 24 h
S. aureus MRSA 5156 [4] = assay: microbe, parasite or virus in culture; conditions: Staphylococcus aureus, 24 h
S. aureus MRSA 1630 [5] = assay: microbe, parasite or virus in culture; conditions: Staphylococcus aureus, 24 h
S. aureus MRSA 5159 [6] = assay: microbe, parasite or virus in culture; conditions: Staphylococcus aureus, 24 h
S. aureus MRSA 5157 [7] = assay: microbe, parasite or virus in culture; conditions: Staphylococcus aureus, 24 h
S. aureus MRSA 3511 [8] = assay: microbe, parasite or virus in culture; conditions: Staphylococcus aureus, 24 h
S. aureus MRSA 2-122 [9] = assay: microbe, parasite or virus in culture; conditions: Staphylococcus aureus, 24 h
S. aureus MRSA 1635 [10] = assay: microbe, parasite or virus in culture; conditions: Staphylococcus aureus, 24 h
S. aureus MRSA 3126 [11] = assay: microbe, parasite or virus in culture; conditions: Staphylococcus aureus, 24 h
S. aureus MRSA 0027 [12] = assay: microbe, parasite or virus in culture; conditions: Staphylococcus aureus, 24 h
S. aureus MRSA 4761 [13] = assay: microbe, parasite or virus in culture; conditions: Staphylococcus aureus, 24 h
S. aureus MRSA 1870 [14] = assay: microbe, parasite or virus in culture; conditions: Staphylococcus aureus, 24 h
S. aureus MRSA 1635 [15] = conditions: 24 hours at 37° C.
S. aureus MRSA 4761 [16] = conditions: 24 hours at 37° C.
S. aureus MRSA 1870 [17] = conditions: 24 hours at 37° C.
S. aureus MRSA 1630 [18] = conditions: 24 hours at 37° C.
S. aureus MRSA 5159 [19] = conditions: 24 hours at 37° C.
S. aureus MRSA 5157 [20] = conditions: 24 hours at 37° C.
S. aureus MRSA 3-359 [21] = conditions: 24 hours at 37° C.
S. aureus MRSA 3518 [22] = conditions: 24 hours at 37° C.
S. aureus MRSA 2-122 [23] = conditions: 24 hours at 37° C.
S. aureus MRSA 3126 [24] = conditions: 24 hours at 37° C.
S. aureus MRSA 3511 [25] = conditions: 24 hours at 37° C.
S. aureus MRSA 0027 [26] = conditions: 24 hours at 37° C.
S. aureus MRSA 5156 [27] = conditions: 24 hours at 37° C.
S. aureus [28] = conditions: 24 hours at 37° C.

Molecule	MIC (S. aureus MRSA 1635 [15]) [µM]	MIC (S. aureus MRSA 4761 [16]) [µM]	MIC (S. aureus MRSA 1870 [17]) [µM]	MIC (S. aureus MRSA 1630 [18]) [µM]	MIC (S. aureus MRSA 5159 [19]) [µM]	MIC (S. aureus MRSA 5157 [20]) [µM]	MIC (S. aureus MRSA 3-359 [21]) [µM]	MIC (S. aureus MRSA 3518 [22]) [µM]	MIC (S. aureus MRSA 2-122 [23]) [µM]	MIC (S. aureus MRSA 3126 [24]) [µM]	MIC (S. aureus MRSA 3511 [25]) [µM]	MIC (S. aureus MRSA 0027 [26]) [µM]	MIC (S. aureus MRSA 5156 [27]) [µM]	also measured
CC[C@H]1OC(=O)[C@H](C)[C@@H](O[C@H]2C[C@@](C)(OC)[C@@H](O)[C@H](C)O2)[C@H](C)[C@@H](O[C@@H]2O[C@H](C)C[C@H](N(C)C)[C@H]2O)[C@](C)(O)C[C@@H](C)C(=O)[C@H](C)[C@@H](O)[C@]1(C)O [Erythromycin, erythromycin]	–	–	–	–	–	–	–	–	–	–	–	–	–	MIC (S. aureus MRSA 3-359 [1]): > 256 µM; MIC (S. aureus MRSA 3518 [2]): > 256 µM; MIC (S. aureus [3]): 1 µM (≈ 0.734 µg/mL); MIC (S. aureus MRSA 5156 [4]): > 256 µM; MIC (S. aureus MRSA 1630 [5]): > 256 µM; MIC (S. aureus MRSA 5159 [6]): 16 µM (≈ 11.7 µg/mL); MIC (S. aureus MRSA 5157 [7]): 16 µM (≈ 11.7 µg/mL); MIC (S. aureus MRSA 3511 [8]): > 256 µM; MIC (S. aureus MRSA 2-122 [9]): > 256 µM; MIC (S. aureus MRSA 1635 [10]): > 256 µM; MIC (S. aureus MRSA 3126 [11]): 128 µM (≈ 93.9 µg/mL); MIC (S. aureus MRSA 0027 [12]): > 256 µM; MIC (S. aureus MRSA 4761 [13]): > 256 µM; MIC (S. aureus MRSA 1870 [14]): > 256 µM
CC[C@H](C)[C@H](NC(=O)CN)C(=O)NCC(=O)N[C@@H](C)C(=O)N[C@H](C(=O)N[C@@H](CC(C)C)C(=O)N[C@@H](CCCCN)C(=O)N[C@H](C(=O)N[C@@H](CC(C)C)C(=O)N[C@H](C(=O)N[C@H](C(=O)NCC(=O)N[C@@H](CC(C)C)C(=O)N1CCC[C@H]1C(=O)N[C@@H](C)C(=O)N[C@@H](CC(C)C)C(=O)N[C@H](C(=O)N[C@@H](CO)C(=O)N[C@@H](Cc1c[nH]c2ccccc12)C(=O)N[C@H](C(=O)N[C@@H](CCCCN)C(=O)N[C@@H](CCCNC(=N)N)C(=O)N[C@@H](CCCCN)C(=O)N[C@@H](CCCNC(=N)N)C(=O)N[C@@H](CCC(N)=O)C(=O)N[C@@H](CCC(N)=O)C(N)=O)[C@@H](C)CC)[C@@H](C)CC)[C@@H](C)O)[C@@H](C)O)C(C)C)C(C)C [Melittin, melittin]	2 (≈ 5.69 µg/mL)	4 (≈ 11.4 µg/mL)	4 (≈ 11.4 µg/mL)	4 (≈ 11.4 µg/mL)	8 (≈ 22.8 µg/mL)	2 (≈ 5.69 µg/mL)	4 (≈ 11.4 µg/mL)	4 (≈ 11.4 µg/mL)	4 (≈ 11.4 µg/mL)	2 (≈ 5.69 µg/mL)	4 (≈ 11.4 µg/mL)	2 (≈ 5.69 µg/mL)	4 (≈ 11.4 µg/mL)	–
gentamycin	>256	32	16	64	16	16	64	>256	128	32	>256	64	>256	MIC (S. aureus [28]): 1 µM
